Experiment [1] deals with IL-17A levels in human peripheral blood. The experiment is described as follows: tissue or blood. Format: cell-based. The conditions noted are these: 72 h, read-out: Human Whole blood IL-17A (nM).
In experiment [2] the test system is IL-17A in Human peripheral mononuclear cells. Briefly: Human PBMC IL-17A assay. The note with it: 72 h, EC50, antiCD3/antiCD28-coated beads, 3 days, alpha-LISA. Format: cell-based. The protocol: This assay measures the IL-17A inhibitory potential of test compounds in Human peripheral mononuclear cells.
Peripheral blood mononuclear cells (PBMC) were isolated from human buffy coats using density grade centrifugation (Lymphoprep, Medinor), washed twice in PBS and frozen at −150° C. for later use.
Test compounds were diluted in DMSO and 70 nL of titrated test and reference compounds were transferred by the Echo liquid handling system to a 384-well assay plate in to give a final concentration of 0.1% DMSO in the wells.
The PBMC were thawed, washed and suspended in RPMI-1640 supplemented with pen/strep, glutamax and 10% bovine calf serum. The cells were mixed with antiCD3/antiCD28-coated beads (1 cells pr one bead) (Milteney T-cell expansion kit), and immediately thereafter the cells were pipetted to the plate at 130,000c/well. The plate was incubated for 3 days in humidified air/CO2 (95%/5%) On day 3 the level of IL-17A in the culture supernatant is measured using alpha-LISA kit (Perkin Elmer). Cell viability was measured by adding 6 uL pr well Prestoblue© (Life Technologies) and incubating for 2 hours followed by fluorescent measurement (Ex535/Em615). EC50 values were calculated using a 4-parameter non-linear regression curve-fitting model. Donors may be pre-screened in order to select PBMC with a high secretion of IL-17A.
On the technique in general: Bead proximity is the source of the signal in Alpha formats.

Experiment [3] has as its target T1, human RORgt nuclear receptor (RORgT ligand binding domain protein) (Homo sapiens, UniProt P51449).
T1 construct: purchased Proteros Biostructures GmbH
T1 sequence (P51449 with tags, fused parts or gaps): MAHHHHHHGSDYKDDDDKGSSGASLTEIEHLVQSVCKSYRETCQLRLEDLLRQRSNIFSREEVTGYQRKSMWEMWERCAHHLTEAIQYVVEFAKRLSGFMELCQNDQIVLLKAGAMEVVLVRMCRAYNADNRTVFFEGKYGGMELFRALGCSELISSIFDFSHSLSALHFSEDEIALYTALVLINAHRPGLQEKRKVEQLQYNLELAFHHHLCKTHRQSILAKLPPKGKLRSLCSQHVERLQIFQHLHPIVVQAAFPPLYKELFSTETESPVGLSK
The experiment is described as follows: ROR-gamma binding assay (Scintillation Proximity Assay, displacement of [3H]-25-hydroxycholesterol). The conditions noted are these: EC50, SPA, 15 nM [3H]-25-Hydroxycholesterol, RORgT LBD 12 nM. The procedure: This assay is used to evaluate the binding affinity of compounds to the ligand-binding pocket of the human RORgt nuclear receptor based on displacement of a radio-ligand. The EC50 values are calculated using a four parameter fit. Compounds binding with high affinity to RORgt will have low EC50 values.
The assay is a Scintillation Proximity Assay (SPA) that involves competition between an unlabeled test compound and tritium-labeled 25-hydroxycholesterol for binding to RORgT ligand binding domain (LBD) protein immobilized on the surface of SPA beads. These beads contain a scintillant that emits light if excited by a radioactive particle, and this light is detected using a scintillation counter. In this assay, tritium-labelled 25-hydroxycholesterol is used as radiotracer.
400 nL of titrated test and reference compounds in DMSO were transferred by the Echo liquid handling system to a 384-well assay plate followed by addition of 5 μL [3H]-25-Hydroxycholesterol (Perkin Elmer) and 35 μL diluted RORgT LBD protein with the following amino acid sequence (HIS-FLG-tag): MAHHHHHHGSDYKDDDDKGSSGASLTEIEHLVQSVCKSYRETCQLRLEDLLRQRSNIFSREEVTGYQRKSMWEMWERCAHHLTEAIQYVVEFAKRLSGFMELCQNDQIVLLKAGAMEVVLVRMCRAYNADNRTVFFEGKYGGMELFRALGCSELISSIFDFSHSLSALHFSEDEIALYTALVLINAHRPGLQEKRKVEQLQYNLELAFHHHLCKTHRQSILAKLPPKGKLRSLCSQHVERLQIFQHLHPIVVQAAFPPLYKELFSTETESPVGLSK (SEQ ID NO: 1) (Purchased from Proteros Biostructures GmbH). After 30 min of preincubation, 40 μL of HIS-TAG PVT SPA beads (Perkin Elmer) were added. The plates were then incubated for minimum 4 hours at room temperature in darkness before measuring the SPA signal using a MicroBeta plate scintillation counter. Final assay conditions were: 50 mM HEPES pH 7.4, 150 mM NaCl, 5 mM MgCl2, 0.1% BSA, 4 μg/well HIS-TAG PVT SPA Beads, 30 ng/well RORgT LBD (equal to a final concentration of 12 nM), 15 nM [^3H]-25-Hydroxycholesterol, 0.5% DMSO and varying concentrations of test compound in a total volume of 80 μL/well. EC50 values were calculated using a 4-parameter non-linear regression curve-fitting model.
On the technique in general: SPA uses beads or plates that emit light when radiolabelled molecules are held near them.

`CCC(F)(F)C(=O)N1CCN(Cc2cc(C)cc(Nc3nnc([C@@H](C)O)o3)c2C)C[C@@H]1C` [Example 21, 2,2-difluoro-1-[(2S)-4-[[3-[[5-[(1R)-1-hydroxyethyl]-1,3,4-oxadiazol-2-yl]amino]-2,5-dimethyl-phenyl]methyl]-2-methyl-piperazin-1-yl]butan-1-one]: the EC50 was 251 nM in experiment [1], 180 nM in experiment [2] and 71.7 nM in experiment [3].

On to `Cc1cc(CN2CCN(C(=O)C3CC3)[C@@H](C)C2)c(C)c(Nc2nnc([C@@H](C)O)o2)c1` [Example 22, cyclopropyl-[(2S)-4-[[3-[[5-[(1R)-1-hydroxyethyl]-1,3,4-oxadiazol-2-yl]amino]-2,5-dimethyl-phenyl]methyl]-2-methyl-piperazin-1-yl]methanone], for which the EC50 in experiment [1] was 355 nM; in experiment [2], 254 nM; in experiment [3], 169 nM.

For the compound `Cc1cc(CN2CCN(C(=O)C3CC3C)[C@@H](C)C2)c(C)c(Nc2nnc([C@@H](C)O)o2)c1` (stereo partly drawn) [Example 23, [(2S)-4-[[3-[[5-[(1R)-1-hydroxyethyl]-1,3,4-oxadiazol-2-yl]amino]-2,5-dimethyl-phenyl]methyl]-2-methyl-piperazin-1-yl]-(2-methylcyclopropyl)methanone], the EC50 in experiment [1] stood at 238 nM; in experiment [2], 368 nM; in experiment [3], 125 nM.

For the compound `Cc1cc(CN2CCN(C(=O)C3CCCC3)[C@@H](C)C2)c(C)c(Nc2nnc([C@@H](C)O)o2)c1` [Example 24, cyclopentyl-[(2S)-4-[[3-[[5-[(1R)-1-hydroxyethyl]-1,3,4-oxadiazol-2-yl]amino]-2,5-dimethyl-phenyl]methyl]-2-methyl-piperazin-1-yl]methanone], the EC50 in experiment [1] came out at 112 nM; in experiment [2] it was 35.9 nM; in experiment [3], 38.6 nM.

On to `Cc1cc(CN2CCN(C(=O)C3CCC(F)(F)C3)[C@@H](C)C2)c(C)c(Nc2nnc([C@@H](C)O)o2)c1` (stereo partly drawn) [Example 25, (3,3-difluorocyclopentyl)-[(2S)-4-[[3-[[5-[(1R)-1-hydroxyethyl]-1,3,4-oxadiazol-2-yl]amino]-2,5-dimethyl-phenyl]methyl]-2-methyl-piperazin-1-yl]methanone], for which the EC50 in experiment [1] was determined as 191 nM; in experiment [2], 258 nM; in experiment [3], 159 nM.

For the compound `Cc1cc(CN2CCN(C(=O)CC3CCC3)[C@@H](C)C2)c(C)c(Nc2nnc([C@@H](C)O)o2)c1` [Example 26, 2-cyclobutyl-1-[(2S)-4-[[3-[[5-[(1R)-1-hydroxyethyl]-1,3,4-oxadiazol-2-yl]amino]-2,5-dimethyl-phenyl]methyl]-2-methyl-piperazin-1-yl]ethanone], the results for the EC50 in experiment [1], in experiment [2] and in experiment [3] were 119 nM, 91.3 nM and 58.2 nM, respectively.

Turning to `Cc1c(CN2CCN(C(=O)C3CCC3)[C@@H](C)C2)cc(C(F)F)cc1Nc1nnc([C@H](C)O)o1` [Example 27, cyclobutyl-[(2S)-4-[[5-(difluoromethyl)-3-[[5-[(1S)-1-hydroxyethyl]-1,3,4-oxadiazol-2-yl]amino]-2-methyl-phenyl]methyl]-2-methyl-piperazin-1-yl]methanone], the EC50 was determined as 457 nM in experiment [1], 425 nM in experiment [2] and 95.9 nM in experiment [3].

On to `Cc1cc(CN2CCN(C(=O)OC(C)(C)C)[C@@H](C)C2)c(C)c(Nc2nnc([C@H]3C[C@@H](O)C3)o2)c1` [Example 29, tert-butyl (2S)-4-[[3-[[5-(3-hydroxycyclobutyl)-1,3,4-oxadiazol-2-yl]amino]-2,5-dimethyl-phenyl]methyl]-2-methyl-piperazine-1-carboxylate], for which the EC50 in experiment [1] worked out at 422 nM; in experiment [2] it was 117 nM; in experiment [3], 37.8 nM.

Consider `Cc1cc(CN2CCN(C(=O)OC(C)(C)C)[C@@H](C)C2)c(C)c(Nc2nnc(-c3cnnn3C)o2)c1` [Example 30, tert-butyl (2S)-4-[[2,5-dimethyl-3-[[5-(3-methyltriazol-4-yl)-1,3,4-oxadiazol-2-yl]amino]phenyl]methyl]-2-methyl-piperazine-1-carboxylate], for which the EC50 was found to be 239 nM in experiment [1], 93.6 nM in experiment [2] and 31.2 nM in experiment [3].

Turning to `Cc1cc(CN2CCN(C(=O)OC(C)(C)C)[C@@H](C)C2)c(C)c(Nc2nnc(-c3ccnn3C)o2)c1` [Example 31, tert-butyl (2S)-4-[[2,5-dimethyl-3-[[5-(2-methylpyrazol-3-yl)-1,3,4-oxadiazol-2-yl]amino]phenyl]methyl]-2-methyl-piperazine-1-carboxylate], the EC50 in experiment [1] stood at 231 nM; in experiment [2], 63.5 nM; in experiment [3] it was 32.4 nM.

With `Cc1cc(CN2CCN(C(=O)OC(C)(C)C)[C@@H](C)C2)c(C)c(Nc2nnc(-c3ccno3)o2)c1` [Example 32, tert-butyl (2S)-4-[[3-[(5-isoxazol-5-yl-1,3,4-oxadiazol-2-yl)amino]-2,5-dimethyl-phenyl]methyl]-2-methyl-piperazine-1-carboxylate], the EC50 amounted to 392 nM in experiment [1], 101 nM in experiment [2] and 26.4 nM in experiment [3].

For the compound `Cc1cc(CN2CCN(C(=O)OC(C)(C)C)[C@@H](C)C2)c(C)c(Nc2nnc(-c3cnsn3)o2)c1` [Example 33, tert-butyl (2S)-4-[[2,5-dimethyl-3-[[5-(1,2,5-thiadiazol-3-yl)-1,3,4-oxadiazol-2-yl]amino]phenyl]methyl]-2-methyl-piperazine-1-carboxylate], the EC50 is 126 nM in experiment [1], 45.2 nM in experiment [2] and 23.3 nM in experiment [3].

For the compound `Cc1cc(CN2CCN(C(=O)OC(C)(C)C)[C@@H](C)C2)c(C)c(Nc2nnc(-c3nonc3C)o2)c1` [Example 34, tert-butyl (2S)-4-[[2,5-dimethyl-3-[[5-(4-methyl-1,2,5-oxadiazol-3-yl)-1,3,4-oxadiazol-2-yl]amino]phenyl]methyl]-2-methyl-piperazine-1-carboxylate], the figures for the EC50 in experiment [1], in experiment [2] and in experiment [3] were 83.7 nM, 24.8 nM and 24.6 nM, respectively.

As to `Cc1cc(CN2CCN(C(=O)OC(C)C)[C@@H](C)C2)c(C)c(Nc2nnc(C)o2)c1` [Example 35, isopropyl (2S)-4-[[2,5-dimethyl-3-[(5-methyl-1,3,4-oxadiazol-2-yl)amino]phenyl]methyl]-2-methyl-piperazine-1-carboxylate], the results for the EC50 in experiment [1], in experiment [2] and in experiment [3] were 499 nM, 106 nM and 33.9 nM, respectively.

Consider `Cc1cc(CN2CCN(C(=O)OC(C)C)[C@@H](C)C2)c(C)c(Nc2nnc([C@@H](N)CO)o2)c1` [Example 36, isopropyl (2S)-4-[[3-[[5-[(1S)-1-amino-2-hydroxy-ethyl]-1,3,4-oxadiazol-2-yl]amino]-2,5-dimethyl-phenyl]methyl]-2-methyl-piperazine-1-carboxylate], for which the EC50 in experiment [1] turned out to be 451 nM; in experiment [2], 366 nM; in experiment [3], 84.1 nM.

These data come from patent US10934282B2, “Heteroaromatic modulators of the retinoid-related orphan receptor gamma” (LEO PHARMA A/S, priority 2016, dated 2021).
